As usually defined, the EC50 is the concentration at which the effect is half-maximal. The term IC50 denotes the concentration that gives 50% inhibition.

We go through 56 compounds from patent US10980805B2, “Aza-pyridone compounds and uses thereof” (Janssen BioPharma, Inc., priority 2013, dated 2021).

Experiment [1] relates to Influenza strain A549_A/WSN/33 (H1N1). In words: Influenza antiviral assay (neuraminidase fluorescence readout). The settings on record: read-out: % Inhibition (EC50 class, Table 2). It counts as cell-based, Influenza virus.
In experiment [2] the target is Full length EN PA (influenza PA endonuclease) (Influenza A virus, UniProt P15659). The experiment is described as follows: EN PA FRET inhibition assay. It counts as biochemical. The settings on record: FRET probe, mean of a minimum of two independent experiments, read-out: Potency (IC50 class, Table 3).

The structures appear in SMILES notation. Like-named read-outs stand apart in the source and are kept apart here.

As to `CCN1CC(C2c3ccccc3CCc3ccccc32)n2ncc(=O)c(O)c2C1=O` (stereo not shown) [Compound 14], the EC50 in experiment [1] (Influenza A virus) was under 20 µM. Also, the concentration for half-maximal inhibition (IC50) in experiment [2] is under 0.25 µM.
The like results for `CC(C)N1CC(C2c3cccc(F)c3CCc3c(F)cccc32)n2ncc(=O)c(O)c2C1=O` (stereo not shown) [Compound 51] were, in that order, under 20 µM and under 0.25 µM.
With `CN1C[C@H]([C@H](c2ccccc2)n2ccnc2)n2ncc(=O)c(O)c2C1=O` [Compound 108-B], the EC50 in experiment [1] (Influenza A virus) lay in the range of 20 to 100 µM. The IC50 in experiment [2] is under 0.25 µM.
The like results for `CC(C)CN1C[C@H](C(c2ccccc2)c2ccccc2)n2ncc(=O)c(O)c2C1=O` [Compound 98-A] were, in that order, under 20 µM and under 0.25 µM.
With `CN1CC(C(c2ccccc2)c2cccc(Cc3cnn(C)c3)c2)n2ncc(=O)c(O)c2C1=O` (stereo not shown) [Compound 104], in experiment [1] (Influenza A virus), the EC50 is under 20 µM. In addition, in experiment [2], the IC50 was under 0.25 µM.
With `CCN1C[C@@H](C(c2ccccc2)c2ccccc2)n2ncc(=O)c(O)c2C1=O` [Compound 5-B], in experiment [1] (Influenza A virus), the EC50 is under 20 µM. In experiment [2], the IC50 was in the range of 0.25 to 1 µM.
`C[C@@H](N1CC(C(c2ccccc2)c2ccccc2)n2ncc(=O)c(O)c2C1=O)C(F)(F)F` (stereo partly shown) [Compound 35-B]: the EC50 in experiment [1] (Influenza A virus) was under 20 µM. Further, in experiment [2], the IC50 was 0.25 to 1 µM.
The corresponding values for `CCC#Cc1ccn([C@@H](c2ccccc2)[C@@H]2CN(C)C(=O)c3c(O)c(=O)cnn32)n1` [Compound 125] are under 20 µM and under 0.25 µM.
In the case of `Cc1ccccc1CC1CN(C)C(=O)c2c(O)c(=O)cnn21` (stereo not shown) [Compound 4], in experiment [2], the concentration for half-maximal inhibition (IC50) was under 0.25 µM.
Take `CCCN1C[C@H](C(c2cccc(Cl)c2)c2cccc(Cl)c2)n2ncc(=O)c(O)c2C1=O` [Compound 84-A]: the EC50 in experiment [1] (Influenza A virus) is under 20 µM. Moreover, the IC50 in experiment [2] is under 0.25 µM.
The like results for `CCN1C[C@H](C(c2cccc(F)c2)c2cccc(F)c2)n2ncc(=O)c(OCOC(=O)Oc3ccc([N+](=O)[O-])cc3C)c2C1=O` [Compound 88-A] were, in that order, under 20 µM and 0.25 to 1 µM.
As to `CC#Cc1cn(C(c2ccccc2)C2CN(C)C(=O)c3c(O)c(=O)cnn32)cn1` (stereo not shown) [Compound 111], the concentration for a half-maximal effect (EC50) in experiment [1] (Influenza A virus) is at least 100 µM. The IC50 in experiment [2] was in the range of 0.25 to 1 µM.
As to `CC(C)N1C[C@H](C2c3ccccc3CCc3ccccc32)n2ncc(=O)c(O)c2C1=O` [Compound 17-A], in experiment [2], the half-maximal inhibitory concentration (IC50) is under 0.25 µM.
`CN1CC(C(Cc2ccccc2)c2ccccc2)n2ncc(=O)c(O)c2C1=O` (stereo not shown) [Compound 103]: in experiment [1] (Influenza A virus), the EC50 fell in the range of 20 to 100 µM. The IC50 in experiment [2] is under 0.25 µM.
The like results for `O=C1c2c(O)c(=O)cnn2C(C2c3ccccc3CCc3ccccc32)CN1Cc1ccccc1` (stereo not shown) [Compound 13] were, in that order, under 20 µM and under 0.25 µM.
The like results for `CN1CC(C2c3cc(Cl)ccc3CCc3ccc(Cl)cc32)n2ncc(=O)c(O)c2C1=O` (stereo not shown) [Compound 52] were, in that order, under 20 µM and under 0.25 µM.
The corresponding values for `CN1C[C@@H](C2c3ccccc3CCc3ccccc32)n2ncc(=O)c(O)c2C1=O` [Compound 7-B] are under 20 µM and under 0.25 µM.
For the compound `CC(C)N1CC(C(c2ccccc2)c2cccc(-c3ccccc3)c2)n2ncc(=O)c(O)c2C1=O` (stereo not shown) [Compound 78], the EC50 in experiment [1] (Influenza A virus) is under 20 µM. Besides, the IC50 in experiment [2] was under 0.25 µM.
On to `[2H]c1c([2H])c([2H])c(C(c2c([2H])c([2H])c([2H])c([2H])c2[2H])[C@H]2CN(C(C)C)C(=O)c3c(OC(=O)C(C)C)c(=O)cnn32)c([2H])c1[2H]` [Compound 130], for which the EC50 in experiment [1] (Influenza A virus) is under 20 µM.
In the case of `O=C1c2c(O)c(=O)cnn2[C@@H](C2c3ccccc3CCc3ccccc32)CN1Cc1ccccc1` [Compound 13-A], in experiment [1] (Influenza A virus), the EC50 is under 20 µM. Besides, the IC50 in experiment [2] is under 0.25 µM.
In the case of `CC(C)COC(=O)Oc1c2n(ncc1=O)[C@@H](C(c1ccccc1)c1ccccc1)CN(C(C)C)C2=O` [Compound 134], the EC50 in experiment [1] (Influenza A virus) is under 20 µM. Moreover, the IC50 in experiment [2] was at least 1 µM.
The corresponding values for `CN1CC(C2c3ccccc3CCc3cc(Cl)ccc32)n2ncc(=O)c(O)c2C1=O` (stereo not shown) [Compound 29] are under 20 µM and under 0.25 µM.
As for `C#Cc1ccn([C@@H](c2ccccc2)[C@H]2CN(C)C(=O)c3c(O)c(=O)cnn32)n1` [Compound 109-B], the EC50 in experiment [1] (Influenza A virus) is under 20 µM. Moreover, the half-inhibitory concentration (IC50) in experiment [2] is under 0.25 µM.
The corresponding values for `CN1CC(C2c3cc(F)ccc3CCc3c(F)cccc32)n2ncc(=O)c(O)c2C1=O` (stereo not shown) [Compound 56] are under 20 µM and under 0.25 µM.
For `CC(C)N1C[C@H](C(c2ccccc2)c2cccc(Cl)c2)n2ncc(=O)c(O)c2C1=O` (single isomer, unassigned) [Compound 82-A], the 50% effective concentration (EC50) in experiment [1] is under 20 µM. Besides, in experiment [2], the IC50 was under 0.25 µM.
Take `CC(C)N1C[C@H](C(c2ccccc2)c2cccc(Cl)c2)n2ncc(=O)c(O)c2C1=O` (single isomer, unassigned) [Compound 73-A]: the EC50 in experiment [1] (Influenza A virus) was under 20 µM. Also, the IC50 in experiment [2] is under 0.25 µM.
With `CN1CC(C(c2ccc(Cl)cc2)c2cccc(Cl)c2)n2ncc(=O)c(O)c2C1=O` (stereo not shown) [Compound 60], the EC50 in experiment [1] (Influenza A virus) is under 20 µM. In addition, the IC50 in experiment [2] was under 0.25 µM.
The corresponding values for `CC(C)C(=O)Oc1c2n(ncc1=O)[C@@H](C(c1cccc(F)c1)c1cccc(F)c1)CN(C(C)C)C2=O` [Compound 70-A] are under 20 µM and under 0.25 µM.
With `CCN1C[C@@H](C(c2cccc(F)c2)c2cccc(F)c2)n2ncc(=O)c(O)c2C1=O` [Compound 21-B], the EC50 in experiment [1] (Influenza A virus) is under 20 µM. In addition, in experiment [2], the IC50 was under 0.25 µM.
For `CN1C[C@@H]([C@H](c2ccccc2)c2cccc(OC3CC3)c2)n2ncc(=O)c(O)c2C1=O` [Compound 105-C], the EC50 in experiment [1] (Influenza A virus) was under 20 µM. For the same compound, the 50% inhibitory concentration (IC50) in experiment [2] lay in the range of 0.25 to 1 µM.
The corresponding values for `O=C1NCC(C2c3ccccc3CSc3cc(Cl)ccc32)n2ncc(=O)c(O)c21` (stereo not shown) [Compound 16] are under 20 µM and 0.25 to 1 µM.
The like results for `CCN1C[C@H](C(c2cccc(F)c2)c2cccc(F)c2)n2ncc(=O)c(OCOC(=O)NC)c2C1=O` [Compound 94-A] were, in that order, 20 to 100 µM and at least 1 µM.
The like results for `COc1cccc(C(c2ccccc2)C2CN(C)C(=O)c3c(O)c(=O)cnn32)c1` (stereo not shown) [Compound 26] were, in that order, under 20 µM and under 0.25 µM.
Consider `CC(N1CC(=C(c2ccccc2)c2ccccc2)n2ncc(=O)c(O)c2C1=O)C(F)(F)F` (stereo not shown) [Compound 15], for which the IC50 in experiment [2] is at least 1 µM.
On to `CCN1C[C@@H](C(c2cccc(C)c2)c2cccc(C)c2)n2ncc(=O)c(O)c2C1=O` [Compound 36-B], for which the EC50 in experiment [1] (Influenza A virus) was under 20 µM. Besides, in experiment [2], the half-maximal inhibitory concentration (IC50) is at least 1 µM.
For the compound `CC(C)N1CC(=C(c2ccccc2)c2ccccc2)n2ncc(=O)c(O)c2C1=O` [Compound 11], the IC50 in experiment [2] is under 0.25 µM.
For the compound `CN1CC(C2c3ccc(F)cc3CCc3c(F)cccc32)n2ncc(=O)c(O)c2C1=O` (stereo not shown) [Compound 59-A], in experiment [1] (Influenza A virus), the EC50 is under 20 µM. In addition, in experiment [2], the IC50 is under 0.25 µM.
For `CCN1C[C@H](C(c2ccccc2)c2cccc(Cl)c2)n2ncc(=O)c(OC(=O)c3cccnc3)c2C1=O` (stereo partly shown) [Compound 79-A], the EC50 in experiment [1] (Influenza A virus) is under 20 µM. Also, the concentration for half-maximal inhibition (IC50) in experiment [2] was under 0.25 µM.
Regarding `CN1CC(C2c3ccccc3COc3ccccc32)n2ncc(=O)c(O)c2C1=O` (stereo not shown) [Compound 57], the concentration giving a half-maximal response (EC50) in experiment [1] (Influenza A virus) was under 20 µM. The 50% inhibitory concentration (IC50) in experiment [2] is under 0.25 µM.
With `O=C1c2c(O)c(=O)cnn2[C@@H](C(c2cccc(F)c2)c2cccc(F)c2)CN1CCO` [Compound 92-A], the EC50 in experiment [1] (Influenza A virus) was under 20 µM. In experiment [2], the IC50 was under 0.25 µM.
The like results for `CN1C[C@H]([C@@H](c2ccccc2)c2ccccn2)n2ncc(=O)c(O)c2C1=O` [Compound 128] were, in that order, under 20 µM and under 0.25 µM.
The like results for `CN1C[C@H]([C@@H](c2ccccc2)c2cccc(Cl)c2)n2ncc(=O)c(O)c2C1=O` [Compound 9-A] were, in that order, under 20 µM and under 0.25 µM.
As to `CC(C)N1C[C@H]([C@H](c2ccccc2)n2ccc(C#N)n2)n2ncc(=O)c(O)c2C1=O` [Compound 127-A], the concentration for a half-maximal effect (EC50) in experiment [1] (Influenza A virus) is under 20 µM. For the same compound, the IC50 in experiment [2] is under 0.25 µM.
In the case of `CN1C[C@H]([C@@H](c2ccccc2)n2cnc(I)c2)n2ncc(=O)c(O)c2C1=O` [Compound 107-A], the EC50 in experiment [1] (Influenza A virus) is 20 to 100 µM. The half-inhibitory concentration (IC50) in experiment [2] is under 0.25 µM.
The like results for `CC(C)N1C[C@@H]([C@@H](c2ccccc2)n2ccc(C#N)n2)n2ncc(=O)c(O)c2C1=O` [Compound 127-D] were, in that order, under 20 µM and 0.25 to 1 µM.
For the compound `CCN1C[C@@H]([C@@H](c2ccccc2)c2cccc(Cl)c2)n2ncc(=O)c(O)c2C1=O` [Compound 12-D], the IC50 in experiment [2] fell in the range of 0.25 to 1 µM.
Regarding `CC(C)N1C[C@@H](C(c2ccccc2)c2ccccc2)n2ncc(=O)c(O)c2C1=O` [Compound 6-B], the EC50 in experiment [1] (Influenza A virus) was under 20 µM. For the same compound, the half-maximal inhibitory concentration (IC50) in experiment [2] is 0.25 to 1 µM.
In the case of `CCN1C[C@H](C(c2ccccc2)c2cccc(Cl)c2)n2ncc(=O)c(O)c2C1=O` (stereo partly shown) [Compound 12-C], the IC50 in experiment [2] was under 0.25 µM.
Same read-out and setting: the result for `CCN1C[C@@H]([C@H](c2ccccc2)c2cccc(Cl)c2)n2ncc(=O)c(O)c2C1=O` [Compound 12-E] reads under 0.25 µM; that for `CCN1C[C@@H](C2c3ccccc3CCc3ccccc32)n2ncc(=O)c(O)c2C1=O` [Compound 14-B], under 0.25 µM; that for `CN1CC(Cc2ccccc2)n2ncc(=O)c(O)c2C1=O` (stereo not shown) [Compound 2], under 0.25 µM.
Still for that read-out and setting: the result for `CN1CC(CCc2ccccc2)n2ncc(=O)c(O)c2C1=O` (stereo not shown) [Compound 3] reads under 0.25 µM.
Same read-out and setting: the result for `CC(C)N1C[C@@H](C(c2cccc(F)c2)c2cccc(F)c2)n2ncc(=O)c(O)c2C1=O` [Compound 41-B] reads 0.25 to 1 µM.
With `CCC(CC)N1CC(C(c2ccccc2)c2ccccc2)n2ncc(=O)c(O)c2C1=O` (stereo not shown) [Compound 43], the IC50 in experiment [2] is under 0.25 µM.
Turning to `CC(C)N1CC(C(c2cccc(Cl)c2)c2cccc(Cl)c2)n2ncc(=O)c(O)c2C1=O` (stereo not shown) [Compound 44], in experiment [2], the IC50 was under 0.25 µM.
On to `CC(C)N1C[C@@H](C(c2ccccc2)c2cccc(Cl)c2)n2ncc(=O)c(O)c2C1=O` (single isomer, unassigned) [Compound 82-B], for which the IC50 in experiment [2] is 0.25 to 1 µM.
